{"source": "paper PMC9851200", "about": "“Multiparameter phenotypic screening for endogenous TFEB and TFE3 translocation identifies novel chemical series modulating lysosome function” (Autophagy, 2022)", "format_in_all_cases": "binding", "key": {"[1]": {"target": "T1, kinases (KINOMEscan panel) (Homo sapiens, UniProt O15146)", "T1 sequence (O15146 24-869)": "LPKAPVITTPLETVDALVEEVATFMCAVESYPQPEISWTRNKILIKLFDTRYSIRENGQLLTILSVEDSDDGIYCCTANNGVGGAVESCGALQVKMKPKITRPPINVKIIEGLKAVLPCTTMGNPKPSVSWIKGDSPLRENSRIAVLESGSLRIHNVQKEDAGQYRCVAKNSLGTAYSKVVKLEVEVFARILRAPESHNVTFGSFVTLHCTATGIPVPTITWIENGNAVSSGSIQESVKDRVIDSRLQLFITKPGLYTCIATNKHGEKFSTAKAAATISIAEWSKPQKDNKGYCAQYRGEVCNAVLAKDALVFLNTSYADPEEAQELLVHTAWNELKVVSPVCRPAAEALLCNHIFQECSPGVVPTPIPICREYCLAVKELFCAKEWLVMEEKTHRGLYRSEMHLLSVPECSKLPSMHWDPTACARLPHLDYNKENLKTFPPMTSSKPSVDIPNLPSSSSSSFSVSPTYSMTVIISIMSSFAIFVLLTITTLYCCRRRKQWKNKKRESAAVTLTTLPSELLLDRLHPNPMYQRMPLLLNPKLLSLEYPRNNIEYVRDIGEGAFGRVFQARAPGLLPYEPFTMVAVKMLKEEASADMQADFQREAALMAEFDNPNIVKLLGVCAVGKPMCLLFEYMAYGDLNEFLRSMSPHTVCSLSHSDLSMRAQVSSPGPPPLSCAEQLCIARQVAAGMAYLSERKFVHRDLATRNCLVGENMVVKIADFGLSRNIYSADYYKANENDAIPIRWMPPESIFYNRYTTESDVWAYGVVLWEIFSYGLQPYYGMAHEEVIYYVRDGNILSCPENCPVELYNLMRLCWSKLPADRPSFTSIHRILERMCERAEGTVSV", "conditions": "MUSK; NEW KINOMEscan"}, "[2]": {"target": "kinases (KINOMEscan panel) (Homo sapiens, UniProt P21802)", "sequence (P21802 22-821)": "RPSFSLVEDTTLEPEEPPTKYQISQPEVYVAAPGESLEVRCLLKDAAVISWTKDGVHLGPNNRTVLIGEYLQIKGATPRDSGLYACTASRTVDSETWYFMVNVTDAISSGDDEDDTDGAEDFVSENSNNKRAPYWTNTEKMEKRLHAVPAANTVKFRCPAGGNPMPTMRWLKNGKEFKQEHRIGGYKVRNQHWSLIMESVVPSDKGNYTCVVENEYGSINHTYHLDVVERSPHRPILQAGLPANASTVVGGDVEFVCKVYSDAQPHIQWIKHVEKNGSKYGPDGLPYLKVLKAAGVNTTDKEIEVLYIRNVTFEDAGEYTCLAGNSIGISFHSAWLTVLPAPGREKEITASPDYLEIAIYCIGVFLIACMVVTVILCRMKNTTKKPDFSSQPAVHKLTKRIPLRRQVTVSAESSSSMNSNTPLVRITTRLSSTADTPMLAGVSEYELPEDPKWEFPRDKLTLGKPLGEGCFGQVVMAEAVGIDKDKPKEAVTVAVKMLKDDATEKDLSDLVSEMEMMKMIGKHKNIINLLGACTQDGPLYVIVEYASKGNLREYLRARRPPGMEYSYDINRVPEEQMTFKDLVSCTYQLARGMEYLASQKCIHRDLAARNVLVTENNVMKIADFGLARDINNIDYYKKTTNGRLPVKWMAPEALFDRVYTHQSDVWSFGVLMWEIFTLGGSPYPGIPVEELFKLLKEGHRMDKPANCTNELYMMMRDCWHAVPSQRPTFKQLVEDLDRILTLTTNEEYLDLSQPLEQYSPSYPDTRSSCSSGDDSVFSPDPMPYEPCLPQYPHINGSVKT", "conditions": "kinase FGFR2; NEW KINOMEscan"}, "[3]": {"target": "T2, kinases (KINOMEscan panel) (Homo sapiens, UniProt Q9NWZ3)", "T2 sequence (Q9NWZ3 1-460)": "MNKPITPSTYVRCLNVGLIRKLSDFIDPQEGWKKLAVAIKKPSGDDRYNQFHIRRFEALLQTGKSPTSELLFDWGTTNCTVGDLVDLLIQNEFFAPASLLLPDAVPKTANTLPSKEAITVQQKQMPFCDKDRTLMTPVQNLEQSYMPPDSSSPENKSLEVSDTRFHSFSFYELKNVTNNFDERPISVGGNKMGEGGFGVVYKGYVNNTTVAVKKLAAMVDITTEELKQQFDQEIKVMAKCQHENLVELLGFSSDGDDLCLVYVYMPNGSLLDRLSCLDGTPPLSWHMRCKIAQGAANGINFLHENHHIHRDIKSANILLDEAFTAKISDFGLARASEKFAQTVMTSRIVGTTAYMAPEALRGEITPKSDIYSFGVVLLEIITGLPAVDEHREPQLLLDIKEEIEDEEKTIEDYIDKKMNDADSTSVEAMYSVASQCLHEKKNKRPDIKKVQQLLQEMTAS", "conditions": "IRAK4; NEW KINOMEscan"}, "[4]": {"target": "kinases (KINOMEscan panel) (Homo sapiens, UniProt Q13705)", "sequence (Q13705 19-512)": "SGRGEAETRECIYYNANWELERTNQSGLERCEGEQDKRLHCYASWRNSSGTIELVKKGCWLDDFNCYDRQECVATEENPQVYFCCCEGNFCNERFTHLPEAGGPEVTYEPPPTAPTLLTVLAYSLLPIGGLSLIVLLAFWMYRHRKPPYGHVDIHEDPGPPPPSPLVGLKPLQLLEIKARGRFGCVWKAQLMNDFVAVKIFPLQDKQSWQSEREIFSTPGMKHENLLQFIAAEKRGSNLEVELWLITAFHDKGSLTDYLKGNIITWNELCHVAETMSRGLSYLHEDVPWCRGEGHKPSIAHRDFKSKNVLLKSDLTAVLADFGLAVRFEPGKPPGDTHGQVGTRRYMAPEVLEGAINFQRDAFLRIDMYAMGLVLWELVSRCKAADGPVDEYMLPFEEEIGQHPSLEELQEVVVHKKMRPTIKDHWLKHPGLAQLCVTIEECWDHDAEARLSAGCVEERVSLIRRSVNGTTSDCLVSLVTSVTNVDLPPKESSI", "conditions": "kinase ACVR2B; NEW KINOMEscan"}, "[5]": {"target": "kinases (KINOMEscan panel) (Homo sapiens, UniProt Q9BYT3)", "sequence (Q9BYT3 whole entry)": "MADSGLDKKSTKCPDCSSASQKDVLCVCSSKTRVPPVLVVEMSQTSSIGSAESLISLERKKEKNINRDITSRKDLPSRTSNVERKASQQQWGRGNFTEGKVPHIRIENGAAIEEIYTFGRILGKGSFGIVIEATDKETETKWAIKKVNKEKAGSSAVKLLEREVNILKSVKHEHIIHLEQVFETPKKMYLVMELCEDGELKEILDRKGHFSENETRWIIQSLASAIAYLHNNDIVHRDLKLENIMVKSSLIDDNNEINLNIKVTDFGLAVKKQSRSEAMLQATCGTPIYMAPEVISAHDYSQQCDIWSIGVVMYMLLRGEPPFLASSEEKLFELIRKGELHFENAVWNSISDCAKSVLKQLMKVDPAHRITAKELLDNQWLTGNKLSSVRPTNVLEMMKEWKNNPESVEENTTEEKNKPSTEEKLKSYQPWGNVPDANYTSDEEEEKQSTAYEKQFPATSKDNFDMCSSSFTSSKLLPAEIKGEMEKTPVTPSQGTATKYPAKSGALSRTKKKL", "conditions": "kinase STK33; NEW KINOMEscan"}, "[6]": {"target": "kinases (KINOMEscan panel) (Homo sapiens, UniProt P35916)", "sequence (P35916 25-1363)": "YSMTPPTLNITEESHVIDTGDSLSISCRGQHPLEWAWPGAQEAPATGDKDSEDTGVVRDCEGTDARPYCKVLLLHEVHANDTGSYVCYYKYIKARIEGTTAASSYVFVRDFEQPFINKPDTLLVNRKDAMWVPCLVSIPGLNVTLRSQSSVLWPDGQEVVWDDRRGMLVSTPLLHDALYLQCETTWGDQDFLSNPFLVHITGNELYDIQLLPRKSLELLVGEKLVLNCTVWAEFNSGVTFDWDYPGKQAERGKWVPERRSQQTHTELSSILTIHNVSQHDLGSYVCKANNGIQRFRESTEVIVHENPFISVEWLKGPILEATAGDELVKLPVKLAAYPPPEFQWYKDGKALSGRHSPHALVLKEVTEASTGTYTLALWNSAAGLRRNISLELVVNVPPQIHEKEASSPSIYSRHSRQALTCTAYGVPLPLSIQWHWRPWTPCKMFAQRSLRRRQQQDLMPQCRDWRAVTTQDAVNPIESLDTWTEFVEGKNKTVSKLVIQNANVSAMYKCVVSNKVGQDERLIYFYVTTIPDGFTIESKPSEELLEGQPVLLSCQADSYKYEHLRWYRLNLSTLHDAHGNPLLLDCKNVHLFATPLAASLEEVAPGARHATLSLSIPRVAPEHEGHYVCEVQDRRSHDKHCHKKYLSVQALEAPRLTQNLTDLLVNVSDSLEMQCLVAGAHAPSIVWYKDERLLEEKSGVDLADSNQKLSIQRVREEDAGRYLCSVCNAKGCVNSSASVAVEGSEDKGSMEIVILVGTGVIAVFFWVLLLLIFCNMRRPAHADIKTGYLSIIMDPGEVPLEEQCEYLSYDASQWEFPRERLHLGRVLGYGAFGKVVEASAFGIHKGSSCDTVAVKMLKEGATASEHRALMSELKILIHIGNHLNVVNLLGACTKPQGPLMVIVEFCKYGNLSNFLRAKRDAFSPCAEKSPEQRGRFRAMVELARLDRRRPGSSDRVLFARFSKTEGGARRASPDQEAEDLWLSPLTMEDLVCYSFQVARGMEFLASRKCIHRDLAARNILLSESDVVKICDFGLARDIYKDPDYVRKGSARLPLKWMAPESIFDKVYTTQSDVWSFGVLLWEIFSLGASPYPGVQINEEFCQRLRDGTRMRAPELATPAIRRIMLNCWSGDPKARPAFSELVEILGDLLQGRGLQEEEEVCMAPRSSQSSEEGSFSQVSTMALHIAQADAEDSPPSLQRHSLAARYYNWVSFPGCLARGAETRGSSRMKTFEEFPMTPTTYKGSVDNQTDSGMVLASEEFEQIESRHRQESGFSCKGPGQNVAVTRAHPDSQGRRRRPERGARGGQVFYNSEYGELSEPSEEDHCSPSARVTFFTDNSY", "conditions": "FLT4; NEW KINOMEscan"}, "[7]": {"target": "kinases (KINOMEscan panel) (Homo sapiens, UniProt Q13464)", "sequence (Q13464 whole entry)": "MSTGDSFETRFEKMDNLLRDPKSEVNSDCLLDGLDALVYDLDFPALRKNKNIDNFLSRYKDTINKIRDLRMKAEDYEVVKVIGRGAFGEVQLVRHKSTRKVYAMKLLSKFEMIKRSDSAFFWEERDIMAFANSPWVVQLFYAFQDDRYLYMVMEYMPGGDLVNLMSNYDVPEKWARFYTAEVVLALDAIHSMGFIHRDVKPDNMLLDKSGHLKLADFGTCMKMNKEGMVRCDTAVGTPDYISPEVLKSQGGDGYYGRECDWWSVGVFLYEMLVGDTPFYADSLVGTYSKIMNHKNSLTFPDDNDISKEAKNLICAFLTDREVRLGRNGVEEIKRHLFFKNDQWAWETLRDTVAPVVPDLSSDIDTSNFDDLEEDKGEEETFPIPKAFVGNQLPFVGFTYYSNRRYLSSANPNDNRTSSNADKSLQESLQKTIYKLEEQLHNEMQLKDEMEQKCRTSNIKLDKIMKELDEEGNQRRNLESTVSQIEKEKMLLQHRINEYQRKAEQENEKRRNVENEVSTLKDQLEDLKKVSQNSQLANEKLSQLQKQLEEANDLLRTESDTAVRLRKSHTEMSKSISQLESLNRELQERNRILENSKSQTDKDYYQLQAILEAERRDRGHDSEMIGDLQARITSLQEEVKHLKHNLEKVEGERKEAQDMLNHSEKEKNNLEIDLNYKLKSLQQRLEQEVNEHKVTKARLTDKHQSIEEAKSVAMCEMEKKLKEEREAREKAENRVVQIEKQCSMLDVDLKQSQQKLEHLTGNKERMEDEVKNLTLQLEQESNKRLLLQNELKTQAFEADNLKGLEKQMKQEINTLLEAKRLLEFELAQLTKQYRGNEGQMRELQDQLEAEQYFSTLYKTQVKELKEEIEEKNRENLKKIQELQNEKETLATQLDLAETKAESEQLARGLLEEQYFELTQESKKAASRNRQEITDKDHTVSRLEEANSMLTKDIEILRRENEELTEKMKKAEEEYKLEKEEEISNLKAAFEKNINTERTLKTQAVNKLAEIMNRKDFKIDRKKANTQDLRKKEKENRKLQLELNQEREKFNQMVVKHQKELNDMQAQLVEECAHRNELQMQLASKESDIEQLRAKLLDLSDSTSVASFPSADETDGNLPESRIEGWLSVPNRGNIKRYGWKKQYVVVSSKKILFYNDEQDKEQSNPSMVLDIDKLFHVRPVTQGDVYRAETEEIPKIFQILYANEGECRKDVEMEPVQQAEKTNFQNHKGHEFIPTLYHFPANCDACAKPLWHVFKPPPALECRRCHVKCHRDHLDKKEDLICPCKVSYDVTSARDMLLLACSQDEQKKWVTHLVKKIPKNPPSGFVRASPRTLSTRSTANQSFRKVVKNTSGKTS", "conditions": "ROCK1; NEW KINOMEscan"}, "[8]": {"target": "T3, kinases (KINOMEscan panel) (Homo sapiens, UniProt Q8NG66)", "T3 sequence (Q8NG66 1-645)": "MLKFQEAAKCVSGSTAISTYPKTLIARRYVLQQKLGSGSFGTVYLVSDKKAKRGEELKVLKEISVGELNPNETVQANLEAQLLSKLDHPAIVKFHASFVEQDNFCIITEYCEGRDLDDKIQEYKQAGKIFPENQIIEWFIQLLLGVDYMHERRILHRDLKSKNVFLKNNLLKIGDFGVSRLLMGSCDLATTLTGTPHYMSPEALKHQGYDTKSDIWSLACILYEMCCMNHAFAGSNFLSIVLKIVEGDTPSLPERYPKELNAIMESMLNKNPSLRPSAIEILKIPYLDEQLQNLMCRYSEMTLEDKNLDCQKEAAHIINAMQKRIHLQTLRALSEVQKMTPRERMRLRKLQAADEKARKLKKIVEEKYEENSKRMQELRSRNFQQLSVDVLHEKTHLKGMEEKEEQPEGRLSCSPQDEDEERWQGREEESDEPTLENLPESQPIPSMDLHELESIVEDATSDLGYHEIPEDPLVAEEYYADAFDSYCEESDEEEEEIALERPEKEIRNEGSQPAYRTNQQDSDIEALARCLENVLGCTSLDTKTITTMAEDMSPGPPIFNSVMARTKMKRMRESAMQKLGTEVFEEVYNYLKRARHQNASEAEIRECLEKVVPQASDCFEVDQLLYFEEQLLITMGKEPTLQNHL", "conditions": "NEW KINOMEscan"}}}
{"compound": "Cc1cccc(-c2nc(Nc3ccc4nn(C)cc4c3)c3ccccc3n2)n1", "note": "[NK167]", "values": [{"measurement": "KINOMEscan MUSK", "setting": "[1]", "value": 2}, {"measurement": "KINOMEscan FGFR2", "setting": "[2]", "value": 0}, {"measurement": "KINOMEscan IRAK4", "setting": "[3]", "value": 0}, {"measurement": "KINOMEscan ACVR2B", "setting": "[4]", "value": 0}, {"measurement": "KINOMEscan STK33", "setting": "[5]", "value": 0}, {"measurement": "KINOMEscan FLT4", "setting": "[6]", "value": 0}, {"measurement": "KINOMEscan ROCK1", "setting": "[7]", "value": 0}, {"measurement": "KINOMEscan NEK11", "setting": "[8]", "value": 0}]}
{"compound": "Cc1cccc(-c2nc(N(C)c3ccc4ncsc4c3)c3ccccc3n2)n1", "note": "[NK-161]", "values": [{"measurement": "KINOMEscan MUSK", "setting": "[1]", "value": 0}, {"measurement": "KINOMEscan FGFR2", "setting": "[2]", "value": 9}, {"measurement": "KINOMEscan IRAK4", "setting": "[3]", "value": 0}, {"measurement": "KINOMEscan ACVR2B", "setting": "[4]", "value": 22}, {"measurement": "KINOMEscan STK33", "setting": "[5]", "value": 0}, {"measurement": "KINOMEscan FLT4", "setting": "[6]", "value": 1}, {"measurement": "KINOMEscan ROCK1", "setting": "[7]", "value": 12}, {"measurement": "KINOMEscan NEK11", "setting": "[8]", "value": 2}]}
